Experimental data taken from US20240190876A1, “Tricyclic Urea Compounds As JAK2 V617F Inhibitors” (Incyte Corporation, priority 2022, published 2024).

Key:
[1] = In Vitro Intrinsic Clearance; type: in vitro ADME; details: human liver microsomes, 1 μM compound, NADPH, scaled to human
Procedure: For in vitro metabolic stability experiments, test compounds were incubated with human liver microsomes at 37° C. The incubation mixture contained test compounds (1 μM), NADPH (2 mM), and human liver microsomes ([…]) in 100 mM phosphate buffer (pH 7.4). The mixture was pre-incubated for 2 min at 37° C. before the addition of NADPH. Reactions were commenced upon the addition of NADPH and quenched with ice-cold methanol at 0, 10, 20, and 30 min. Terminated incubation mixtures were analyzed using LC-MS/MS system. The analytical system consisted of a Shimadzu LC-30AD binary pump system and SIL-30AC autosampler (Shimadzu Scientific Instruments, Columbia, MD) coupled with a Sciex Triple Quad 6500+mass spectrometer from Applied Biosystems (Foster City, CA). […] Mobile phase A consisted of 0.1% formic acid in water, and mobile phase B consisted of 0.1% formic acid in acetonirile. The total LC-MS/MS runtime was 2.75 minutes with a flow rate of 0.75 mL/min. Peak area integrations and peak area ratio calculations were performed using Analyst software (version 1.6.3) from Applied Biosystems.
The in vitro intrinsic clearance, CLint, in vitro, was calculated from the t1/2 of test compound disappearance as CLint, in vitro=(0.693/t1/2)×(1/Cprotein), where Cprotein is the protein concentration during the incubation, and t1/2 was determined by the slope (k) of the log-linear regression analysis of the concentration versus time profiles; thus, t1/2ln2/k. The CLint, in vitro values were scaled to the in vivo values for human by using physiologically based scaling factors, hepatic microsomal protein concentrations (45 mg protein/g liver), and liver weights (21 g/kg body weight). The equation CLint=CLint, in vitro×(mg protein/g liver weight)×(g liver weight/kg body weight) was used. The in vivo hepatic clearance (CLH) was then calculated by using CLint and hepatic blood flow, Q (20 mL·min^−1kg^−1 in humans) in the well-stirred liver model disregarding all binding from CLH (Q×CLint)/(Q+CLint). The hepatic extraction ratio was calculated as CLH divided by Q.

[2] = system: Phospho-STAT5 (Tyr694) in SET-2 cells; experiment: STAT5 (Tyr694) Phosphorylation Cell Based Assay; details: Homo sapiens, pSTAT5 (Tyr694) HTRF, 2 hours, RPMI with 10% FBS, read-out: SET2 IC50
Procedure: SET-2 cells was purchased from DSMZ (Germany). RPMI1640 medium, Fetal Bovine Serum and 384-white sold flat-bottom small volume plate were purchased from Thermo Fisher Scientific (Waltham, MA). Phospho-STAT5 (Tyr694) HTRF kit was purchased from Perkin Elmer (Waltham, MA).
SET-2 cells were cultured in RPMI media with 20% FBS at 37° C. in humidified incubator supplied with 5% CO2. On the day of assay, the cells were centrifuged to remove the culture media and resuspended with prewarmed RPMI with 10% FBS.
Testing compounds were prepared by serial dilution in DMSO and 50 nL/well test compounds were transferred to the 384 white low volume cell culture plate (Greiner Bio-one) by ECHO liquid handler (Labcyte). The cells were then dispensed with Multidrop (Thermo Fisher, Waltham, MA) at 10 μL/well (7×10^6 cells/mL) with 0.5% DMSO in the final assay. After the treated cells were incubated for 2 hours at 37° C./5% CO2 incubator, 4 μL/well supplemented lysis buffer (100X blocking buffer diluted 25 fold in 4X lysis buffer, Perkin Elmer) were added and incubated at room temperature for 90 min on orbital shaker at 600 rpm. Phospho-STAT5 Cryptate antibody and Phospho-STAT5 d2 antibody (1:1 vol/vol) were premixed and diluted 20 fold with in the detection buffer (Perkin Elmer). 4 μL of the premixed antibody solution were added to each well followed with 24 hours incubation at room temperature on orbital shaker at 600 rpm. The product activity was determined by measuring the fluorescence at 620 nm and 665 nm on Pherastar microplate reader (BMG Labtech). A ratio is calculated (665/620) for each well. Wells with DMSO only served as the positive controls and wells containing high concentration of control compound were used as negative controls. IC50 determination was performed by fitting the curve of percent control activity versus the log of the compound concentration using the GraphPad Prism 7.0 software.

| SMILES | h-IntCL [1] | IC50 [2] |
| --- | --- | --- |
| COc1ccc(-c2c(-c3cn(C)nc3OC)[nH]c3ncc4c(c23)n([C@H]2CC[C@@](C)(NC(=O)C3CC3)CC2)c(=O)n4C)cc1 [Example 1, N-((1s,4s)-4-(7-(3-Methoxy-1-methyl-1H-pyrazol-4-yl)-8-(4-methoxyphenyl)-3-methyl-2-oxo-3,6-dihydroimidazo[4,5-d]pyrrolo[2,3-b]pyridin-1(2H)-yl)-1-methylcyclohexyl)cyclopropanecarboxamide] | ‡ (‡ refers to h-IntCL of <0.7 L/h/kg) | ≤ 300 nM |
| [2H]C([2H])([2H])n1ncc2cc(-c3c(-c4cn(C)nc4OC)[nH]c4ncc5c(c34)n([C@H]3CC[C@@](C)(NC(=O)C4CC4)CC3)c(=O)n5C)ccc21 [Example 2, N-((1s,4s)-4-(7-(3-Methoxy-1-methyl-1H-pyrazol-4-yl)-3-methyl-8-(1-(methyl-d3)-1H-indazol-5-yl)-2-oxo-3,6-dihydroimidazo[4,5-d]pyrrolo[2,3-b]pyridin-1(2H)-yl)-1-methylcyclohexyl)cyclopropanecarboxamide] | ‡ (‡ refers to h-IntCL of <0.7 L/h/kg) | ≤ 300 nM |
| [2H]C([2H])([2H])n1cc(-c2[nH]c3ncc4c(c3c2-c2ccc(OC)cc2)n([C@H]2CC[C@@](C)(NC(=O)C3CC3)CC2)c(=O)n4C)c(F)n1 [Example 3, N-((1s,4s)-4-(7-(3-fluoro-1-(methyl-d3)-1H-pyrazol-4-yl)-8-(4-methoxyphenyl)-3-methyl-2-oxo-3,6-dihydroimidazo[4,5-d]pyrrolo[2,3-b]pyridin-1(2H)-yl)-1-methylcyclohexyl)cyclopropanecarboxamide] | ‡ ‡ (‡ ‡ refers to h-IntCL of ≥0.7 L/h/kg to ≤1 L/h/kg) | ≤ 300 nM |
| [2H]C([2H])([2H])n1cc(-c2[nH]c3ncc4c(c3c2-c2ccc3c(cnn3C([2H])([2H])[2H])c2)n([C@H]2CC[C@@](C)(NC(=O)C3CC3)CC2)c(=O)n4C)c(F)n1 [Example 4, N-((1s,4s)-4-(7-(3-fluoro-1-(methyl-d3)-1H-pyrazol-4-yl)-3-methyl-8-(1-(methyl-d3)-1H-indazol-5-yl)-2-oxo-3,6-dihydroimidazo[4,5-d]pyrrolo[2,3-b]pyridin-1(2H)-yl)-1-methylcyclohexyl)cyclopropanecarboxamide] | ‡ (‡ refers to h-IntCL of <0.7 L/h/kg) | ≤ 300 nM |
| [2H]C([2H])([2H])n1ncc2cc(-c3c(-c4cn(CC)nc4F)[nH]c4ncc5c(c34)n([C@H]3CC[C@@](C)(NC(=O)C4CC4)CC3)c(=O)n5C)ccc21 [Example 5, N-((1s,4s)-4-(7-(1-Ethyl-3-fluoro-1H-pyrazol-4-yl)-3-methyl-8-(1-(methyl-d3)-1H-indazol-5-yl)-2-oxo-3,6-dihydroimidazo[4,5-d]pyrrolo[2,3-b]pyridin-1(2H)-yl)-1-methylcyclohexyl)cyclopropanecarboxamide] | ‡ (‡ refers to h-IntCL of <0.7 L/h/kg) | ≤ 300 nM |
| [2H]C([2H])([2H])n1cc(-c2[nH]c3ncc4c(c3c2-c2ccc(OC)cc2)n([C@H]2CC[C@@](C)(NC(=O)[C@H]3C[C@H]3F)CC2)c(=O)n4C([2H])([2H])[2H])c(F)n1 [Example 6, (1R,2R)-2-Fluoro-N-((1s,4S)-4-(7-(3-fluoro-1-(methyl-d3)-1H-pyrazol-4-yl)-8-(4-methoxyphenyl)-3-(methyl-d3)-2-oxo-3,6-dihydroimidazo[4,5-d]pyrrolo[2,3-b]pyridin-1(2H)-yl)-1-methylcyclohexyl)cyclopropane-1-carboxamide] | ‡ (‡ refers to h-IntCL of <0.7 L/h/kg) | ≤ 300 nM |
